According to patent US20060264460A1 (Wyeth, priority 2005, published 2006):

What follows are compounds tested against T1, human Cot/Tpl2 kinase (Homo sapiens, UniProt P41279) (assay: Tpl2/Cot kinase assay: GST-MEK1 phosphorylation detected by ELISA (DELFIA Eu)). Settings: 0.4 nM Tpl2, 35 nM GST-MEK1, 50 uM ATP, 1 h at 30° C.
T1 construct: human Cot/Tpl2 kinase construct encoding residues 30-398; 6His (N); made in house; host or cells: Sf9 insect cells, baculovirus system (BD Biosciences)
Assay type: biochemical
Method in brief: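 His-tagged human Tpl2 from Sf9 cells, Ni-affinity and size-exclusion purified (monomer). 0.4 nM Tpl2 with 35 nM GST-MEK1, 50 uM ATP, MOPS pH 7.2, 1% DMSO, 1 h at 30° C; EDTA stop. MEK1 Ser217/221 phosphorylation detected by anti-phospho-MEK1 and Eu-labelled secondary ELISA; IC50 fitted.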

T1 sequence (P41279 30-398): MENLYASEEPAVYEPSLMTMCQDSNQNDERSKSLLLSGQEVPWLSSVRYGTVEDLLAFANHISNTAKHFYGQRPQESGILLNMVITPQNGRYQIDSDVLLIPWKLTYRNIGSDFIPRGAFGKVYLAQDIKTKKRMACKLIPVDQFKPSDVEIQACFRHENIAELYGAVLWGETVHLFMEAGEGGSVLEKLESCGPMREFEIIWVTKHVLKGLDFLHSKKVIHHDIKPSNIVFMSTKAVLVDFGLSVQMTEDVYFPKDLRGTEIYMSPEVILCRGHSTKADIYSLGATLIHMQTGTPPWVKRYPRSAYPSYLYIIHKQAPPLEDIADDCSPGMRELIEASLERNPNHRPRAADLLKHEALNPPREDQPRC

Row | SMILES | IC50 [nM]
1 | CN(C)c1ccc(CNc2ccc3ncc(C#N)c(Nc4ccc(F)c(Cl)c4)c3c2)c(F)c1C#N [Example 20, 4-(3-Chloro-4-fluoro-phenylamino)-6-(3-cyano-4-dimethylamino-2-fluoro-benzylamino)-quinoline-3-carbonitrile] | 610
2 | Cn1ccnc1CNc1cc(F)c2ncc(C#N)c(Nc3ccc(F)c(Cl)c3)c2c1 [Example 268, 4-[(3-Chloro-4-fluorophenyl)amino]-8-fluoro-6-{[(1-methyl-1H-imidazol-2-yl)methyl]amino}quinoline-3-carbonitrile] | 12
3 | N#Cc1cnc2c(Cl)cc(NCc3cccnc3)cc2c1Nc1ccc(F)c(Cl)c1 [Example 178, 8-chloro-4-(3-chloro-4-fluorophenylamino)-6-(pyridin-3-ylmethylamino)quinoline-3-carbonitrile] | 16
4 | N#Cc1cnc2c(Br)cc(NCc3[nH]nnc3-c3ccccc3)cc2c1Nc1ccc(F)c(Cl)c1 [Example 311, 8-bromo-4-[(3-chloro-4-fluorophenyl)amino]-6-{[(4-phenyl-1H-1,2,3-triazol-5-yl)methyl]amino}quinoline-3-carbonitrile] | 12
5 | CN(C)C(=O)c1cc(NCc2ccc(C#N)cc2)cc2c(Nc3ccc(F)c(Cl)c3)c(C#N)cnc12 [Example 86, 4-(3-chloro-4-fluorophenylamino)-3-cyano-6-(4-cyanobenzylamino)-N,N-dimethylquinoline-8-carboxamide] | 1100
6 | CN(C)C(=O)c1cc(NCc2ccc(CO)o2)cc2c(Nc3ccc(F)c(Cl)c3)c(C#N)cnc12 [Example 88, 4-(3-chloro-4-fluorophenylamino)-3-cyano-6-((5-(hydroxymethyl)furan-2-yl)methylamino)-N,N-dimethylquinoline-8-carboxamide] | 250
7 | N#Cc1cnc2ccc(NCc3cccnc3)cc2c1NC1CCCCCC1 [Example 246, 4-(cycloheptylamino)-6-[(pyridin-3-ylmethyl)amino]quinoline-3-carbonitrile] | 2400
8 | N#Cc1cnc2ccc(NCc3cc[nH]n3)cc2c1Nc1ccc(F)c(Cl)c1 [Example 27, 4-(3-Chloro-4-fluoro-phenylamino)-6-[(1H-pyrazol-3-ylmethyl)-amino]-quinoline-3-carbonitrile] | 74
9 | CS(=O)(=O)c1ccc(CNc2ccc3ncc(C#N)c(Nc4ccc(F)c(Cl)c4)c3c2)cc1 [Example 50, 4-(3-Chloro-4-fluoro-phenylamino)-6-(4-methanesulfonyl-benzylamino)-quinoline-3-carbonitrile] | 200
10 | Cc1cccc(CNc2cc(Cl)c3ncc(C#N)c(Nc4ccc(F)c(Cl)c4)c3c2)n1 [Example 192, 8-chloro-4-(3-chloro-4-fluorophenylamino)-6-((6-methylpyridin-2-yl)methylamino)quinoline-3-carbonitrile] | 170
11 | N#Cc1cnc2ccc(NCc3cccc(Cl)c3)cc2c1Nc1ccc(F)c(Cl)c1 [Example 152, 6-(3-chlorobenzylamino)-4-(3-chloro-4-fluorophenylamino)quinoline-3-carbonitrile] | 1300
12 | Cc1ncn(C)c1CNc1ccc2ncc(C#N)c(Nc3ccc(F)c(Cl)c3)c2c1 [Example 133, 4-(3-chloro-4-fluorophenylamino)-6-((1,4-dimethyl-1H-imidazol-5-yl)methylamino)quinoline-3-carbonitrile] | 200
13 | N#Cc1cnc2ccc(NC(=O)c3ccccc3)cc2c1Nc1ccc(F)c(Cl)c1 [Example 1, N-[4-(3-Chloro-4-fluoro-phenylamino)-3-cyano-quinolin-6-yl]-benzamide] | 11000
14 | COc1cc(NCc2cccnc2)cc2c(Nc3ccc(C)c(O)c3)c(C#N)cnc12 [Example 32, 4-(3-Hydroxy-4-methyl-phenylamino)-8-methoxy-6-[(pyridin-3-ylmethyl)-amino]-quinoline-3-carbonitrile] | > 40000
15 | CN(Cc1cn(CCC2CCCN2C)nn1)c1cc(Cl)c2ncc(C#N)c(Nc3ccc(F)c(Cl)c3)c2c1 (stereo not shown) [Example 321, 8-chloro-4-(3-chloro-4-fluorophenylamino)-6-(methyl((1-(2-(1-methylpyrrolidin-2-yl)ethyl)-1H-1,2,3-triazol-4-yl)methyl)amino)quinoline-3-carbonitrile] | 490
16 | N#Cc1cnc2c(C(F)(F)F)cc(NCc3cccc(Br)n3)cc2c1Nc1ccc(F)c(Cl)c1 [Example 259, 6-{[(6-Bromopyridin-2-yl)methyl]amino}-4-[(3-chloro-4-fluorophenyl)amino]-8-(trifluoromethyl)quinoline-3-carbonitrile] | > 40000
17 | CNC(=O)CNc1ccc2ncc(C#N)c(Nc3ccc(F)c(Cl)c3)c2c1 [Example 108, 2-(4-(3-chloro-4-fluorophenylamino)-3-cyanoquinolin-6-ylamino)-N-methylacetamide] | 550

Same assay, conditions: Table 2; Tpl2/Cot kinase, GST-MEK1 substrate, 50 uM ATP

Row | SMILES | IC50 [nM]
18 | CN(C)C(=O)c1cc(N)cc2c(Nc3cccc(Cl)c3)c(C#N)cnc12 [Example 359] | 8400
19 | CC(C)c1cccc(Nc2c(C#N)cnc3ccc(NCCN4CCOCC4)cc23)c1 [Example 352] | > 10000
20 | CC(C)(C)OC(=O)N1CCC(n2cc(CNc3cc(Br)c4ncc(C#N)c(Nc5ccc(F)c(Cl)c5)c4c3)nn2)CC1 [Example 493] | 250
21 | C#Cc1cccc(Nc2c(C#N)cnc3ccc(NCCN4CCOCC4)cc23)c1 [Example 357] | 1300
22 | CN(CCn1cc(CNc2cc(Cl)c3ncc(C#N)c(Nc4ccc(F)c(Cl)c4)c3c2)nn1)C(=O)OC(C)(C)C [Example 502] | 48
23 | N#Cc1cnc2c(Br)cc(NCc3cn(-c4ccncc4)cn3)cc2c1Nc1ccc(F)c(Cl)c1 [Example 554] | 23
24 | CSCCn1cc(CNc2cc(Br)c3ncc(C#N)c(Nc4ccc(F)c(Cl)c4)c3c2)nn1 [Example 508] | 82
25 | N#Cc1cnc2c(Br)cc(NCc3cn(CC(F)(F)F)nn3)cc2c1Nc1ccc(F)c(Cl)c1 [Example 498] | 100
26 | CN(CCn1cc(CNc2cc(Br)c3ncc(C#N)c(Nc4ccc(F)c(Cl)c4)c3c2)nn1)C(=O)OC(C)(C)C [Example 500] | 67
27 | CC(C)(C)Nc1c(C#N)cnc2ccc(NCc3ccn[nH]3)cc12 [Example 405] | > 40000

Same assay, conditions: Tpl2/Cot kinase, GST-MEK1 substrate, 50 uM ATP

Row | SMILES | IC50 [nM]
28 | N#Cc1cnc2c(Cl)cc(NCC(=O)Nc3ccncc3)cc2c1Nc1ccc(F)c(Cl)c1 [Example 774] | 2400
29 | CS(=O)(=O)N1CCC(n2cc(CNc3cc(Br)c4ncc(C#N)c(Nc5ccc(F)c(Cl)c5)c4c3)nn2)CC1 [Example 710] | 1.1
30 | CS(=O)(=O)NCCNc1cc(Cl)c2ncc(C#N)c(Nc3ccc(F)c(Cl)c3)c2c1 [Example 853] | 880
31 | CC(=O)N1CCC(CCn2cc(CNc3cc(Cl)c4ncc(C#N)c(Nc5ccc(F)c(Cl)c5)c4c3)nn2)CC1 [Example 832] | 1.2
32 | N#Cc1cnc2c(Br)cc(NCc3cn(CCc4ccccn4)nn3)cc2c1Nc1ccc(F)c(Cl)c1 [Example 728] | 3.4
33 | N#Cc1cnc2c(Cl)cc(NCC3CC3C(=O)O)cc2c1Nc1ccc(F)c(Cl)c1 (stereo not shown) [Example 886] | 220
34 | CCN1CCCC(Nc2cc(Cl)c3ncc(C#N)c(Nc4ccc(F)c(Cl)c4)c3c2)C1 (stereo not shown) [Example 868] | 1190
35 | N#Cc1cnc2c(Cl)cc(NCc3cn(COCc4ccccc4)nn3)cc2c1Nc1ccc(F)c(Cl)c1 [Example 807] | > 3000
36 | CC(C)(C)OC(=O)N1CCC[C@@H]1Cn1cc(CNc2cc(Cl)c3ncc(C#N)c(Nc4ccc(F)c(Cl)c4)c3c2)nn1 [Example 887] | 160
37 | N#Cc1cnc2c(Cl)cc(NCc3cn(CCCN4CCNCC4)nn3)cc2c1Nc1ccc(F)c(Cl)c1 [Example 769] | 160
38 | CN(C)C(=O)Cn1cc(CN(C)c2cc(Cl)c3ncc(C#N)c(Nc4ccc(F)c(Cl)c4)c3c2)nn1 [Example 851] | 150
39 | N#Cc1cnc2c(Cl)cc(NCc3cn(CCCN4C(=O)c5ccccc5C4=O)nn3)cc2c1Nc1ccc(F)c(Cl)c1 [Example 852] | 120
40 | CC1(C)OC[C@H](CNc2cc(Cl)c3ncc(C#N)c(Nc4ccc(F)c(Cl)c4)c3c2)O1 [Example 812] | 200
41 | N#Cc1cnc2c(Br)cc(NCc3cn(CCOC(N)=O)nn3)cc2c1Nc1ccc(F)c(Cl)c1 [Example 833] | 9
42 | CC(=O)N1CCC[C@@H]1Cn1cc(CNc2cc(Cl)c3ncc(C#N)c(Nc4ccc(F)c(Cl)c4)c3c2)nn1 [Example 898] | 0.2
43 | CCNC(=O)N1CCC(CCn2cc(CNc3cc(Cl)c4ncc(C#N)c(Nc5ccc(F)c(Cl)c5)c4c3)nn2)CC1 [Example 831] | 9.3

Same assay, conditions: Tpl2/Cot kinase, GST-MEK1 substrate, 50 uM ATP, 1 h at 30° C.; Table 2

Row | SMILES | IC50 [nM]
44 | N#Cc1cnc2c(Cl)cc(NCc3cn(C4CC5CCC(C4)N5)nn3)cc2c1Nc1ccc(F)c(Cl)c1 (stereo not shown) [Example 997] | 11
45 | N#Cc1cnc2c(Cl)cc(NCc3cn(CCN4CCNCC4)nn3)cc2c1Nc1ccc(F)c(Cl)c1 [Example 958] | 310
46 | N#Cc1cnc2c(Cl)cc(NCc3cn(C4CCN(CC(F)(F)C(F)(F)F)CC4)nn3)cc2c1Nc1ccc(F)c(Cl)c1 [Example 1017] | 1040
47 | N#Cc1cnc2c(Cl)cc(NCc3cn(C4CCN(C[C@@H](O)[C@H](O)CO)CC4)nn3)cc2c1Nc1ccc(F)c(Cl)c1 [Example 991] | 8.2
48 | CN(C)CC#Cc1csc(CNc2cc(Cl)c3ncc(C#N)c(Nc4ccc(F)c(Cl)c4)c3c2)c1 [Example 1023] | 1160
49 | N#Cc1cnc2c(Cl)cc(NCc3cccs3)cc2c1Nc1ccc(F)c(Cl)c1 [Example 1002] | > 3000
50 | N#Cc1cnc2c(Cl)cc(NCc3cncc(Br)c3)cc2c1Nc1ccc(F)c(Cl)c1 [Example 1047] | 470
51 | Cc1cc(CNc2cc(Cl)c3ncc(C#N)c(Nc4ccc(F)c(Cl)c4)c3c2)no1 [Example 996] | > 3000
52 | CN1CCCC1CCn1cc(CNc2cc(Cl)c3ncc(C#N)c(NC4CCCC4)c3c2)nn1 (stereo not shown) [Example 944] | > 3000
